Test results reported in patent US20070117770A1, “Human ribosomal DNA (rDNA) and ribosomal RNA (rRNA) nucleic acids and uses thereof” (Cylene Pharmaceuticals, Inc., priority 2005, published 2007).

Columns and labels:
Experiment in all cases: Protein kinase inhibition assay
Type in all cases: biochemical
[1] = biological target: CDK5/p25(h) (Homo sapiens, UniProt Q00535); details: read-out: percent residual activity of CDK5/p25(h)
Description: (§1) Certain compounds were tested for activity in protein kinase inhibition assays. All substrates were dissolved and diluted to working stocks in de-ionized water, apart from histone H1 (10× working stock in 20 mM MOPS pH 7.0), PDKtide (10× working stock in 50 mM Tris pH 7.0) ATF2 (which is typically stored at a 20× working stock in 50 mM Tris pH 7.5, 150 mM NaCl, 0.1 mM EGTA, 0.03% Brij-35, 50% glycerol, 1 mM benzamidine, 0.2 mM PMSF and 0.1% R-mercaptoethanol), KKLNRTLSFAEPG (SEQ ID NO:203) and RRRLSFAEPG (SEQ ID NO:204) (50 mM HEPES pH 7.4) and GGEEEEYFELVKKKK (SEQ ID NO:205) (20 mM MOPS pH 7.0). All kinases were pre-diluted to a 10× working concentration prior to addition into the assay. The composition of the dilution buffer for each kinase is detailed below.
(§2) In a final reaction volume of 25 μl, CDK5/p25 (h) (5-10 mU) is incubated with 8 mM MOPS pH 7.0, 0.2 mM EDTA, 0.1 mg/ml histone H1, 10 mM MgAcetate and [y-33P-ATP] (specific activity approx. 500 cpm/pmol, concentration as required). The reaction is initiated by the addition of the MgATP mix. After incubation for 40 minutes at room temperature, the reaction is stopped by the addition of 5 μl of a 3% phosphoric acid solution. 10 μl of the reaction is then spotted onto a P30 filtermat and washed three times for 5 minutes in 75 mM phosphoric acid and once in methanol prior to drying and scintillation counting.

[2] = biological target: CK2(h) (Homo sapiens, UniProt P68400); details: read-out: percent residual activity of CK2(h)
Description: as §1
In a final reaction volume of 25 μl, CK2 (h) (5-10 mU) is incubated with 20 mM HEPES pH 7.6, 0.15 M NaCl, 0.1 mM EDTA, 5 mM DTT, 0.1% Triton X-100, 165 μM RRRDDDSDDD (SEQ ID NO:215), 10 mM MgAcetate and [gamma-33P-ATP] (specific activity approx. 500 cpm/pmol, concentration as required). The reaction is initiated by the addition of the MgATP mix. After incubation for 40 minutes at room temperature, the reaction is stopped by the addition of 5 μl of a 3% phosphoric acid solution. […]

[3] = biological target: KDR(h) (Homo sapiens, UniProt P35968); details: read-out: percent residual activity of KDR(h)
Description: as §1
as §2, with “KDR” for “CDK5/p25”, “0.33” for “0.1”, “myelin basic protein,” for “histone H1,”

[4] = biological target: T1, MKK7β(h) (Homo sapiens, UniProt O14733); details: for remaining activity at 2.5 µM: read-out: percent residual activity of MKK7β(h)
T1 sequence (O14733 1-419): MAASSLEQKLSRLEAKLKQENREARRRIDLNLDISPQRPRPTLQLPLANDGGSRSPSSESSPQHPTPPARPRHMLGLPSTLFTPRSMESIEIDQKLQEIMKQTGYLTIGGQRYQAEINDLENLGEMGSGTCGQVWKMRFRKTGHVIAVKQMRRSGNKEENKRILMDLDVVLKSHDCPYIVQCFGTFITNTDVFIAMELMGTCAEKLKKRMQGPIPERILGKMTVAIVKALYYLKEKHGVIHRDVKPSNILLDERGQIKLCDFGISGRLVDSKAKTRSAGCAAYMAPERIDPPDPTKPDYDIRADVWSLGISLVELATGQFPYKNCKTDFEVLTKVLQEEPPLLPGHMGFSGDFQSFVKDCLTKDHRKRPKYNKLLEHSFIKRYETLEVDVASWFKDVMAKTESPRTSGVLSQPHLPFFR
Description: as §1
The reaction is initiated by the addition of the MgATP. After incubation for 40 minutes at room temperature, 5 μl of this incubation mix is used to initiate a JNK1α1 (h) assay, which is exactly as described on page 11 of this book except that ATF2 is replaced with 250 μM peptide.

[5] = biological target: TrkA(h) (Homo sapiens, UniProt P04629); details: read-out: percent residual activity of TrkA(h)
Description: as §1
as §2, with “TrkA” for “CDK5/p25”, “250 μM KKKSPGEYVNIEFG (SEQ ID NO:207),” for “0.1 mg/ml histone H1,”, “[gamma-33P-ATP]” for “[y-33P-ATP]”

Sequence of KDR(h) (P35968 20-1356): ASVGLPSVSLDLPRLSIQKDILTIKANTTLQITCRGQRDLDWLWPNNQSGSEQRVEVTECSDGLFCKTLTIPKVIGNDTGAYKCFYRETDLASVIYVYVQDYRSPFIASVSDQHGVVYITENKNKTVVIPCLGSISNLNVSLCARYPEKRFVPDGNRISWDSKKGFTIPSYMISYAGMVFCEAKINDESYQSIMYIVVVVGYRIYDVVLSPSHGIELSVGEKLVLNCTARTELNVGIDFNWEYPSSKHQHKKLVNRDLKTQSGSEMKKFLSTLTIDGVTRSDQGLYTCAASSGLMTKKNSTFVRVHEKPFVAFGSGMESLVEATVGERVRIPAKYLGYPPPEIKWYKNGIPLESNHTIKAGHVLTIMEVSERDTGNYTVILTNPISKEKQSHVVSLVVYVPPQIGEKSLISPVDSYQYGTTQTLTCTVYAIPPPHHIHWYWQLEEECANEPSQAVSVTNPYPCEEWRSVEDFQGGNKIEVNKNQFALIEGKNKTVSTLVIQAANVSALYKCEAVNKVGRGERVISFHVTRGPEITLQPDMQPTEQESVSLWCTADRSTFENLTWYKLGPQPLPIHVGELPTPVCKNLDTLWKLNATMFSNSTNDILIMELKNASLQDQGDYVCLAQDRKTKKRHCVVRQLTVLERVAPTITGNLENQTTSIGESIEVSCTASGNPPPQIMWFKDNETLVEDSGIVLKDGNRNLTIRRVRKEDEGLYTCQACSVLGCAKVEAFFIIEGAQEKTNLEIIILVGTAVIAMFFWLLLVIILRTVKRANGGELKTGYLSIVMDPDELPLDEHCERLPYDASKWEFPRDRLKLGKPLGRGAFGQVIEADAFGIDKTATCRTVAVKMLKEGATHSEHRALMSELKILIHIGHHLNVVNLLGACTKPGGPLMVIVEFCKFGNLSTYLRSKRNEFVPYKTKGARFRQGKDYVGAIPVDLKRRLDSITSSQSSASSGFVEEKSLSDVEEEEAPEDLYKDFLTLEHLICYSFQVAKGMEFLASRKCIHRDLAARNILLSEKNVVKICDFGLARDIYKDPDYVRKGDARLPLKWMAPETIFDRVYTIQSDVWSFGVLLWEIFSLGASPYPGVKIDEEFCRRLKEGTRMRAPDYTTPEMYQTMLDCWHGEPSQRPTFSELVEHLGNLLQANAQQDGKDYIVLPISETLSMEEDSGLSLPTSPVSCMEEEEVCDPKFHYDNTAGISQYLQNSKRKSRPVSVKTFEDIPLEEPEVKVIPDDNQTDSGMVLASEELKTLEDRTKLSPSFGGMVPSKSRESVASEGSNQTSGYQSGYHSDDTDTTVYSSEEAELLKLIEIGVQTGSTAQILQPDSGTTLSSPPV
Sequence of TrkA(h) (P04629 33-796): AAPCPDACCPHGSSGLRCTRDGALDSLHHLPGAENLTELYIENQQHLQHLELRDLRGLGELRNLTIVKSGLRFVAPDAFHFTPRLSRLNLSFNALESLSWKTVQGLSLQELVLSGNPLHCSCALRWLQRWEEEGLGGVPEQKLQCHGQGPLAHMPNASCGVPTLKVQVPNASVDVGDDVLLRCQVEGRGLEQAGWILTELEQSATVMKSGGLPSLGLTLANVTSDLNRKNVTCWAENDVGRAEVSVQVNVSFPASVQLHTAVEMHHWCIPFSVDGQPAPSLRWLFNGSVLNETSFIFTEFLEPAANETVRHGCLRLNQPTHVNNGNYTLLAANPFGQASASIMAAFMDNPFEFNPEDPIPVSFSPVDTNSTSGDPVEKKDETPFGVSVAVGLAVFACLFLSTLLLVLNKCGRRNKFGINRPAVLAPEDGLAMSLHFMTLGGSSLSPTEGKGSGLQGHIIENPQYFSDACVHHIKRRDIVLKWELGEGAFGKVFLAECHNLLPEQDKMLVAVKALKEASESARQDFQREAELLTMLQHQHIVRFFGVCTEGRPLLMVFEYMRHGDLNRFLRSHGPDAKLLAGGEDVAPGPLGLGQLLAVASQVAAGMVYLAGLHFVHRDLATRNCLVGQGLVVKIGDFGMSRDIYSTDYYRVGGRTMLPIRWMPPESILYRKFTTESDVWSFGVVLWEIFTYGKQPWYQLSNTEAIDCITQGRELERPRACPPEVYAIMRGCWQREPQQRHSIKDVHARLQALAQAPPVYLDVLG
Sequence of CDK5/p25(h) (Q00535 whole entry): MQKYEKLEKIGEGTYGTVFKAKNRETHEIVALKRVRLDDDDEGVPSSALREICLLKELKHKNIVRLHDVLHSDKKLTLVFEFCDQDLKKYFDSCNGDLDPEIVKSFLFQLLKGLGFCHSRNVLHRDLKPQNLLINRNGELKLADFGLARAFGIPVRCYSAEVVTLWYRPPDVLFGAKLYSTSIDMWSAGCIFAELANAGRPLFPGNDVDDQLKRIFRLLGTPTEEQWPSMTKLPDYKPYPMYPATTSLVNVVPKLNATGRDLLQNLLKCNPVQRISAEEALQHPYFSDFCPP
Sequence of CDK5/p25(h) (Q15078 99-307 partner limits assumed): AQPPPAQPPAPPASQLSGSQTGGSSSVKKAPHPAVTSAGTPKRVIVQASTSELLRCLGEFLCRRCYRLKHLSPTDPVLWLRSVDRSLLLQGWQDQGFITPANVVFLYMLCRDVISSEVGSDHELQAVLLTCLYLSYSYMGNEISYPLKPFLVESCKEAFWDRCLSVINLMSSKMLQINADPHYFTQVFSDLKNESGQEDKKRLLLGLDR
Sequence of CK2(h) (P68400 whole entry): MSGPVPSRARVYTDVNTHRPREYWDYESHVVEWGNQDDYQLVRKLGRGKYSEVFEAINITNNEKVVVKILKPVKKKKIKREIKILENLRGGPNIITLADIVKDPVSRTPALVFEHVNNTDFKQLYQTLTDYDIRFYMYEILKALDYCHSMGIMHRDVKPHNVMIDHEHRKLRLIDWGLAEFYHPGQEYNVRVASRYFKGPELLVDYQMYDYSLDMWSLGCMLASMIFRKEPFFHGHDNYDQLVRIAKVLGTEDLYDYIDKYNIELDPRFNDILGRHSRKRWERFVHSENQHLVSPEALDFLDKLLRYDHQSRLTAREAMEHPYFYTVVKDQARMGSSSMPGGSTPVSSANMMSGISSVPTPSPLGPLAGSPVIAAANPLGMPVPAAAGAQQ
Sequence of CK2(h) (P67870 whole entry partner): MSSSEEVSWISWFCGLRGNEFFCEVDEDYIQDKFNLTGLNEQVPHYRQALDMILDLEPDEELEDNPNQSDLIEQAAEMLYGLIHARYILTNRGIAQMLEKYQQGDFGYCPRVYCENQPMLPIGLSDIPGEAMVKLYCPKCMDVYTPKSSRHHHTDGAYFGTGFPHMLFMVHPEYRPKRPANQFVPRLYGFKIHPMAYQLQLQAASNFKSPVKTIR

In the case of `CN1CCCC1CCNC(=O)c1cn2c3c(c(N4CCC(c5cnccn5)C4)c(F)cc3c1=O)Oc1cc3ccccc3cc1-2` (centres unmarked) [Compound A-1], the remaining activity at 2.5 µM [1] is reported as 77%, the remaining activity at 2.5 µM [2] is reported as 104% and the remaining activity at 2.5 µM [3] is reported as 90%. For the same molecule, the remaining activity at 2.5 µM [4] was 111% and the remaining activity at 2.5 µM [5] was 25%.
For `CC(=O)N1CCN(c2ccc3c(=O)c(C(=O)NCCN4CCCC4)c4n(C)c5ccccc5n4c3n2)CC1` [Compound B-1], the remaining activity at 2.5 µM [1] was 99%, the remaining activity at 2.5 µM [2] was 102% and the remaining activity at 2.5 µM [3] was 95%. The “inhibition of MKK7B” value ([4]; 2.5 μM) was “inhibits MKK7B”, the remaining activity at 2.5 µM [4] was 1% and the remaining activity at 2.5 µM [5] was 80%.
